Patent publication US20070098781A1, “Modified release compositions for DPP-IV inhibitors” (priority 2005, published 2007)
Read-outs that look alike come from different tables or passages of the source. Blank lines part the entries; values can stand above or below the compound they belong to.

Tests used:
[1] = Triple-cannulated cynomolgus monkey model: plasma PK after site-specific delivery; assay type: in vivo; settings: 5 mg/kg; for AUC: plasma, 5 mg/kg in solution
Description: (§1) A study was conducted in an in-house cynomolgus monkey model, in which permanent cannulae had been surgically attached to various sections of their intestine. This animal model allows compounds to be delivered to precise regions of the intestine in the intact animal in vivo. A single dose cross-over study was performed in three animals, where 5 mg/kg of (2S)-1-{[1,1-Dimethyl-3-(4-pyridin-3-yl-imidazol-1-yl)-propylamino]-acetyl}-pyrrolidine-2-carbonitrile was delivered (with sufficient wash out periods in between), in solution by gavage to the stomach or via the cannulae to the duodenum, the jejunum-ileum junction or the top of the ascending colon, respectively. An oral glucose challenge was performed in each animal for each treatment 2 hours post-dose of compound (plus a pre-study control). Full plasma PK and DPPIV inhibition profiles were obtained for each treatment. Blood glucose profiles were measured for 3 hours post-glucose challenge.

blood glucose = experiment: Triple-cannulated cynomolgus monkey model: blood glucose after oral glucose challenge; assay type: in vivo; settings: 5 mg/kg; for Mean Delta Glucose AUEC: oral glucose challenge 2 hours post-dose
Description: as §1

plasma DPPIV = experiment: Triple-cannulated cynomolgus monkey model: plasma DPPIV inhibition after site-specific delivery; assay type: in vivo; settings: for Mean Plasma DPPIV Inhibition: 5 mg/kg in solution
Description: as §1

[2] = Pharmacoscintigraphic evaluation of regional drug absorption: plasma pharmacokinetics after site-specific gastrointestinal delivery (Enterion capsule); assay type: in vivo, human; settings: 400 mg, healthy volunteers; for AUC / Cmax: both sexes, human, plasma, oral; for AUC: read-out: Mean (SD) AUC; for Cmax: read-out: Mean (SD) Cmax
Description: (§2) A pharmacoscintigraphic evaluation of the regional drug absorption and pharmacodynamics of (2S)-1-{[2-(5-Methyl-2-phenyl-oxazol-4-yl)-ethylamino]-acetyl}-pyrrolidine-2-carbonitrile mesylate in up to 9 healthy male or female volunteers following administration to four different sites of the gastrointestinal tract: stomach, proximal small bowel, ileum and ascending colon was carried out. The study was conducted as an open label, 4-way cross-over design consisting of 4 study periods of approximately 2-3 days duration, each separated by washout period of at least 4 days.
(§3) During each study period, 400 mg (2S)-1-{[2-(5-Methyl-2-phenyl-oxazol-4-yl)-ethylamino]-acetyl}-pyrrolidine-2-carbonitrile mesylate was delivered to the appropriate gastrointestinal target using Enterion™ capsule technology. The capsule was administered with water containing a radiolabelled marker (^99mTc-DTPA) which was used to define the gastrointestinal anatomy and the movement of the capsule was followed by means of an ^111In marker within the device. The location of both radiolabels was monitored on images obtained from a dual wavelength gamma camera. Capsule activation and thereby drug release was achieved by applying an external signal. The release was planned to occur within 5 hours of the administration of a standardised low calorie meal.
(§4) The pharmacokinetics of (2S)-1-{[2-(5-Methyl-2-phenyl-oxazol-4-yl)-ethylamino]-acetyl}-pyrrolidine-2-carbonitrile mesylate were determined after each administration by monitoring plasma concentrations of parent drug and metabolites. The pharmacodynamic response was assessed by measuring the concentrations of circulating markers (glucose, insulin, glucagon and GLP-1) for up to 4 hours following an oral glucose tolerance test (OGTT), which itself was carried out 2 hours after release of the drug substance. A control OGTT response (i.e. no drug treatment) was established for each subject before the first treatment period began.

[3] = system: circulating markers (glucose, insulin, glucagon and GLP-1); experiment: Pharmacodynamic response after site-specific delivery: circulating markers following an oral glucose tolerance test (OGTT); assay type: in vivo, human; settings: healthy volunteers, 400 mg; for Mean Delta Blood Glucose AUEC / Mean Plasma GLP-1 AUEC / Mean Plasma Insulin AUEC: OGTT 2 h after release, baseline corrected
Description: as §2, §3, §4

[4] = delivery to the ileum-jejenum junction or colon, versus other sites
[5] = dosing region ascending colon (cannula)
[6] = dosing region duodenum (cannula)
[7] = dosing region ileum-jejunum junction (cannula)

systemic exposure to the compound [1, 4]: lowest systemic exposure
AUC [1, 5]: 354 ng·h/mL
AUC [1, 6]: 3890 ng·h/mL
AUC [1, 7]: 1350 ng·h/mL
AUC ([1]; po, dosing region stomach (gavage)): 2280 ng·h/mL
SMILES: CC(C)(CCn1cnc(-c2cccnc2)c1)NCC(=O)N1CCC[C@H]1C#N [(2S)-1-{[1,1-Dimethyl-3-(4-pyridin-3-yl-imidazol-1-yl)-propylamino]-acetyl}-pyrrolidine-2-carbonitrile]
effect on glucose (blood glucose; [4]): highest effect on glucose
blood glucose compared to control (blood glucose; delivery to the stomach, ileum or the ascending colon): reduction in blood glucose
Mean Delta Glucose AUEC (blood glucose; dosing region ascending colon): 52 % Control
Mean Delta Glucose AUEC (blood glucose; dosing region duodenum): 116 % Control
Mean Delta Glucose AUEC (blood glucose; dosing region ileum-jejunum junction): 76 % Control
Mean Delta Glucose AUEC (blood glucose; dosing region stomach): 88 % Control
Mean Plasma DPPIV Inhibition (plasma DPPIV; [5]): 45 % baseline
Mean Plasma DPPIV Inhibition (plasma DPPIV; [6]): 60 % baseline
Mean Plasma DPPIV Inhibition (plasma DPPIV; [7]): 45 % baseline
Mean Plasma DPPIV Inhibition (plasma DPPIV; dosing region stomach (gavage)): 65 % baseline
average plasma DPPIV inhibition (plasma DPPIV; 5 mg/kg, delivery to the ileum-jejenum junction or colon, versus other sites): lowest average plasma DPPIV inhibition

AUC ([2]; dosing region colon): 3540 ng·h/mL
Cmax ([2]; dosing region colon): 736 ng/mL
AUC ([2]; dosing region duodenum): 14200 ng·h/mL
Cmax ([2]; dosing region duodenum): 7580 ng/mL
AUC ([2]; dosing region ileum): 12300 ng·h/mL
Cmax ([2]; dosing region ileum): 5420 ng/mL
AUC ([2]; dosing region stomach): 12200 ng·h/mL
Cmax ([2]; dosing region stomach): 5570 ng/mL
absorption and elimination rate (plasma profiles) ([2]; all routes of administration except for the colon): broadly similar
period for which plasma concentrations were sustained ([2]; colon delivery): 6-8 hours post dose
plasma concentrations ([2]; colon delivery versus other routes): substantially lower
Average exposure ([2]; delivery to the proximal small bowel (duodenum) versus other sites): slighter greater
SMILES: CS(=O)(=O)O.Cc1oc(-c2ccccc2)nc1CCNCC(=O)N1CCC[C@H]1C#N [(2S)-1-{[2-(5-Methyl-2-phenyl-oxazol-4-yl)-ethylamino]-acetyl}-pyrrolidine-2-carbonitrile mesylate]
Mean Delta Blood Glucose AUEC ([3]; dosing region PSB): 130 % Control
Mean Plasma GLP-1 AUEC ([3]; dosing region PSB): 180 % Control
Mean Plasma Insulin AUEC ([3]; dosing region PSB): 160 % Control
Mean Delta Blood Glucose AUEC ([3]; dosing region colon): 83 % Control
Mean Plasma GLP-1 AUEC ([3]; dosing region colon): 87 % Control
Mean Plasma Insulin AUEC ([3]; dosing region colon): 101 % Control
Mean Delta Blood Glucose AUEC ([3]; dosing region ileum): 47 % Control
Mean Plasma GLP-1 AUEC ([3]; dosing region ileum): 340 % Control
Mean Plasma Insulin AUEC ([3]; dosing region ileum): 47 % Control
Mean Delta Blood Glucose AUEC ([3]; dosing region stomach): 55 % Control
Mean Plasma GLP-1 AUEC ([3]; dosing region stomach): 151 % Control
Mean Plasma Insulin AUEC ([3]; dosing region stomach): 65 % Control
Mean blood glucose area under the effect curve (AUEC) following an OGTT vs control ([3]; both stomach and ileal delivery): substantially decreased
active glucagon-like peptide 1 (primary mechanistic biomarker) ([3]; only ileal delivery): sustained systematic increase
